Laboratory results taken from patent US11213522B2, “Autoimmune-induced glutamatergic receptor dysfunction methods and treatments” (SARAH HERZOG MEMORIAL HOSPITAL EZRAT NASHIM ASSOCIATION, priority 2013, dated 2022).

Assays:
Format in all cases: in vivo, human
[1] = test system: patient positive for anti-NR1 NMDAR antibodies; assay: Abnormal Involuntary Movement Scale (AIMS), D-serine clinical trial; conditions: for AIMS: week 0 score 1
From the text: Out of the seventeen patients that entered the study, the serum of one patient was strongly positive at both serum sample dilutions for the presence of both IgG and IgM classes of anti-NR1 NMDAR antibodies. The patient was a single person having a diagnosis of schizophrenia according to DSM-IV-R criteria (American Psychiatric Association, 2000 Diagnostic and Statistical Manual of Mental Disorders-(DSM-IV-TR), 4th edition. American Psychiatric Association Washington D.C. (Text Revision)). There was no history of mental disorder in the patient's family. The patient had completed post-high school studies and had worked as a secretary. After a period of continuous headaches, for which no organic basis had been found, they had abruptly developed an acute psychosis characterized by grandiose and paranoid delusions, mystical thinking, […] affect and agitation, They had been hospitalized in a psychiatric hospital and underwent treatment with antipsychotic drugs and electroconvulsive therapy with only partial response. The patient had never returned to their previous functional and except for short attempts at living in the community, has been hospitalized ever since. They have been refractory to treatment with various classes of antipsychotic drugs, was not diagnosed with any medical or neurological disorder and was maintained on sulpiride 50 mg/day, citalopram 40 mg/day, lorazepam 1 mg/day and promethazine 50 mg/day. […] DSR is a naturally occurring amino acid that acts in vivo as an obligatory co-agonist at the glycine modulatory site associated with NMDAR. […] Both acute and chronic administration of 1-2 g DSR in humans is known to result in ≥100 times increases in DSR serum levels (Kantrowitz et al., 2010, Schizophr Res121:125-30; Heresco-Levy et al., 2005, Biol Psychiatry 57:577-85). The trial consisted of two periods, starting with a 2 week lead-in/stabilization period (-2-0) following which the patient was entered in the second period of the study which consisted of a 6 week (0-6), open-label, fixed dose therapy phase. During this phase, the patient received adjuvant treatment with DSR, whose dose was increased from 1500 mg/day (week 1) to 2000 mg/day (weeks 2 and 3) to 3000 mg/day (weeks 4 and 5) and to 4000 mg/day (week 6). The doses of the ongoing medication received by the patient remained fixed throughout the study and no changes in medication were performed. The assessment procedures used in the study included clinical and neurocognitive examinations. Motor and psychiatric symptoms as well as side-effects were rated biweekly throughout the study. […] In conjunction with UKU ratings, patient's vital signs and body weight were monitored throughout the study.

[2] = test system: patient positive for anti-NR1 NMDAR antibodies; assay: Tower of London (ToL); conditions: post-6 weeks D-serine
Description: (§1) The trial consisted of two periods, starting with a 2 week lead-in/stabilization period (−2-0) following which the patient was entered in the second period of the study which consisted of a 6 week (0-6), open-label, fixed dose therapy phase. During this phase, the patient received adjuvant treatment with DSR, whose dose was increased from 1500 mg/day (week 1) to 2000 mg/day (weeks 2 and 3) to 3000 mg/day (weeks 4 and 5) and to 4000 mg/day (week 6). The doses of the ongoing medication received by the patient remained fixed throughout the study and no changes in medication were performed.
(§2) In addition, cognitive performance was assessed pre- and post DSR treatment. For this purpose, a 1.5-hour neurocognitive assessment battery (nine computerized and two paper/pencil tests) was employed that measures accuracy and speed of performance in major cognition domains, including attention/vigilance, planning, short-term and working memory, decision making, abstraction and mental flexibility. All the tests were formatted like games and puzzles, and were administered to the patient as part of the comprehensive neuropsychiatric assessment at baseline and the end of study. The neurocognitive battery included the 1) Test of Attentional Vigilance (TOAV, (Forbes, 1998, Journal of Clinical Psychology 54:461-476; Greenberg, 1993, Journal of Child Psychology and Psychiatry 34: 1019-30)); 2) Tower of London (TOL, (Shailice, 1982, Specific impairments of planning Philosophical Transactions of the Royal Society of London. Series B, Biological Sciences 298:199-209); 3-4) Digit Span Test (DST, forward and backward (Wechsler 1997, The Wechsler adult intelligence scale-III. San Antonio, Tex.: Psychological Corporation; Kaplan 1991, The WAIS-R as a neuropsychological instrument. San Antonio, Tex.: The Psychological Corporation; Lamar et al., 2007, Neuropsychologia 45:245-54; Lamar et al., 2008, Neuropsychologia 46:2597-601)); 5-6) Corsi Block Tapping Test (CBTT, forward and backward, (Corsi, 1972, Dissertation Abstracts International. 34:819B; Kessels et al., 2000, Applied Neuropsychology 7:252-58, Kessels et al., 2008, Assessment 15:426-34)); 7) Flanker Task (Erikson and Eriksen, 1974; Perception & Psychophysics 25: 249-63, Stins et. al., 2007, Advances in Cognitive Psychology 3:389-96); 8) Time Wall (Perez et al., 1987, Unified Tri-services cognitive performance assessment battery: review and methodology; DTIC Document ADA181697, http://www.dtic.mil/dtic/tr/fulltext/u2/a81697.pdf); and Wisconsin Card Sort Test (WCST, (Berg, 1948, J Gen Psychol39:15-22; Nelson, 1976, Cortex 12:313-24)). […]

[3] = test system: patient positive for anti-NR1 NMDAR antibodies; assay: Test of Attentional Vigilance (TOAV); conditions: post-6 weeks D-serine
Description: as §1
as §2, with “International.” for “International. 34:819B; Kessels et al., 2000, Applied Neuropsychology 7:252-58, Kessels et al., 2008, Assessment 15:426-34)); 7) Flanker Task (Erikson and Eriksen, 1974; Perception & Psychophysics 25: 249-63, Stins et. al., 2007, Advances in Cognitive Psychology 3:389-96); 8) Time Wall (Perez et al., 1987, Unified Tri-services cognitive performance assessment battery: review and methodology; DTIC Document ADA181697, http://www.dtic.mil/dtic/tr/fulltext/u2/a81697.pdf); and Wisconsin Card Sort Test (WCST, (Berg, 1948, J Gen Psychol39:15-22; Nelson, 1976, Cortex 12:313-24)).”

Q: Which results are given for N[C@H](CO)C(=O)O [D-serine]?
A: Motor symptomatology, as measured by AIMS and SAS scores ([1]; following DSR administration, minimal at baseline): improvements were registered; AIMS ([1]; study week 2): 0; AIMS ([1]; study week 4): 0; AIMS ([1]; study week 6): 0; ToL correctly solved trials, total (0-12) ([2]; pre-treatment 6): 4; ToL preplanning time, mean ± SD ([2]; pre-treatment 15.48 ± 4.43): 11.24 ± 4.73 s; ToL movement execution time, mean ± SD ([2]; pre-treatment 22.57 ± 11.998): 19.30 ± 15.42 s; ToL total time (0-720 seconds) ([2]; pre-treatment 456.582): 366.415 s; TOAV Commission errors ([3]; pre-treatment 1): 0; TOAV Omission errors ([3]; pre-treatment 1): 2; TOAV Response time, mean ± SD ([3]; pre-treatment 562 ± 103): 523 ± 93 milliseconds
